Results on four compounds are retold here after patent US7381743B2, “Macrocycles for the treatment of cancer” (Leibniz-Institut Fuer Pflanzenbiochemie (IPB), priority 2003, dated 2008).

pIC50: −log10 of the molar value. Read-outs that look alike come from different tables or passages of the source. Some results are limits rather than exact numbers.

Format in all cases: cell-based
One test relates to L 929 mouse fibroblasts. Put plainly: Proliferation assay (acidic phosphatase), L 929. The conditions noted are these: L929, 120 h, read-out: Proliferation assay GI50, IC-50, L 929 mouse fibroblasts. The method, then: (§1) Proliferation assay GI50: acidic phosphatase, incubation period 5 days, IC-50 (μM)
A further test has as its system A 549 lung cancer. Put plainly: Proliferation assay (acidic phosphatase), A 549. The conditions noted are these: Homo sapiens, A549, 120 h, read-out: Proliferation assay GI50, IC-50, A 549 lung cancer. The method, then:
as §1

Another test has as its system MCF7 breast cancer. In words: Proliferation assay (acidic phosphatase), MCF7. The conditions noted are these: Homo sapiens, read-out: Proliferation assay GI50, IC-50, MCF7 breast cancer.
Where [1] appears, read: acidic phosphatase, incubation period 5 days.

Turning to `C/C1=C/C[C@@H](/C(C)=C/c2csc(C)n2)OC(=O)CSC(C)(C)C(=O)[C@H](C)[C@@H](O)[C@@H](C)CCC1` [MC54690, (7R,8S,9S,13Z,16S)-8-hydroxy-5,5,7,9,13-pentamethyl-16-[(E)-1-methyl-2-(2-methyl-1,3-thiazol-4-yl)vinyl]-1-oxa-4-thiacyclohexadec-13-ene-2,6-dione], the pIC50 in the test on L 929 mouse fibroblasts was 6.56; in the test with A 549 lung cancer, 8.05; in the test on MCF7 breast cancer (MCF7, 120 h), 7.35.
With `C/C1=C/C[C@@H](/C(C)=C/c2cccc(C)n2)OC(=O)CSC(C)(C)C(=O)[C@H](C)[C@@H](O)/C(C)=C/CC1` [MC54849, (7R,8R,9E,13Z)-8-Hydroxy-5,5,7,9,13-pentamethyl-16-[(1E)-1-methyl-2-(6-methyl-pyridin-2-yl)-vinyl]-1-oxa-4-thia-cyclohexadec-9,13-dien-2,6-dion], the pIC50 with MCF7 breast cancer (MCF7, 96 h) is 6.27.
As to `C/C1=C/C[C@@H](/C(C)=C/c2csc(C)n2)OC(=O)CS(=O)(=O)C(C)(C)C(=O)[C@H](C)[C@@H](O)[C@@H](C)CCC1` [MC-C5, (7R,8R,9S,13Z)-8-Hydroxy-5,5,7,9,13-pentamethyl-16-[(IE)-1-methyl-2-(2-methyl-thiazol-4-yl)-vinyl]-4,4-dioxo-1-oxa-4-thia-cyclohexadec-13-en-2,6-dion], in the test on MCF7 breast cancer (MCF7, 120 h), the pIC50 was less than 5.00.
Turning to `CC(=O)O[C@H]1C(=O)[C@@]2(C)[C@H]([C@H](OC(=O)c3ccccc3)[C@]3(O)C[C@H](OC(=O)[C@H](O)[C@@H](NC(=O)c4ccccc4)c4ccccc4)C(C)=C1C3(C)C)[C@]1(OC(C)=O)CO[C@@H]1C[C@@H]2O` [Taxol, Paclitaxel, reference compound], the pIC50 in the test with L 929 mouse fibroblasts (setting [1]) is 6.57; in the test with A 549 lung cancer (setting [1]), 8.22; with MCF7 breast cancer (MCF7, 120 h, acidic phosphatase, incubation period 5 days), 8.52.
